Measured values as given in patent US20110201664A1, “Methods and Compositions for Treatment of Prostate Intraepithelial Neoplasia” (priority 2006, published 2011).

System: High Grade PIN
Assay: Treatment of a patient with High Grade PIN, repeat prostate biopsy
Assay type: in vivo, human
Settings: person with High Grade PIN; 225 mg per day once daily, 30 doses; 12 biopsies two weeks after last dose; on Atorvastatin 20 mg daily
Description: A person was diagnosed as having High Grade PIN. The diagnosis was based upon 12 biopsies which were done in conjunction with ultrasound localization of the biopsy site, with careful recording of there anatomical position. The patient was started on Bexarotene 225 mg per day. The drug was given as a single dose once daily. […] During the period of therapy the patient was on Atorvastatin 20 mg daily. During the therapy, total cholesterol was 183 mg with a reference range <200 mg/dL, triglycerides were 207 with normal being less than 150 mg/dL, thyroid stimulation hormone (TSH) was 0.07 with the reference range 0.4-5.5 mIU/L, T4 total was 7.4 with the normal range 4.5-12.0 mcg/dL. The Hepatic Function Panel was normal as was the complete blood count (CBC). Two weeks following the last dose of Bexarotene the prostate was rebiopsied with 12 biopsies taken. Six of the biopsies were taken from the putative area, the rest in an enlarging target like pattern. The repeat biopsy was negative for the presence of PIN.

Structure (SMILES): C=C(c1ccc(C(=O)O)cc1)c1cc2c(cc1C)C(C)(C)CCC2(C)C [Bexarotene, 4-[1-(5,6,7,8-tetrahydro-3,5,5,8,8-pentamethyl-2-naphthalenyl)ethenyl] benzoic acid]
- Repeat biopsy, presence of PIN: negative
